Consider 2 molecules from patent publication US20040204357A1, “Modulator of the megalin-mediated uptake of radiotherapeutics and/or radiodiagnostics into kidney cells and their use in therapy and diagnostics” (priority 2003, published 2004).

Read-outs that look alike come from different tables or passages of the source. Square brackets hold non-standard residues; d marks the D form. Peptide text beside a SMILES is read from it. * marks the point of attachment. X1 = NCCCC[C@H](NC(=O)[C@H](CS)NC(=O)[C@H](CCCCN)NC(=O)[C@@H](N)CNC(=O)C*)C(N)=O; NMeF = CN[C@@H](Cc1ccccc1)C(=O)O; hCys = N[C@@H](CCS)C(=O)O

The nature of data set [1]: Biodistribution of radiopharmaceuticals in RAP-deficient mice and control strain C57BL/6J, organs, urine and faeces counted for radioactivity. The class given is in vivo. The note with it: mouse, total radioactivity, single intravenous injection 1-2 μCi/animal, 24 hours post injection, n = 3; for tissue uptake at 24 h: kidneys; for dose excreted at 24 h: urine, read-out: Urine (% ID). How it is done: In order to investigate, whether megalin and cubilin play a role in the renal uptake of radiopharmaceuticals into cells of the proximal tubule, in-vivo experiments with RAP-deficient mice (Jax®Mice, strain B6.129S7-Lrpap1^tmlHer) were carried out.
RAP is mainly located in the endoplasmatic reticulum where it is responsible for the proper folding and escort of megalin to the plasma membrane (Willnow, 1995). RAP also binds to other members of the LDL-receptor family, such as the receptor LRP (LDL-receptor related protein) which is not expressed in the kidneys but mostly in the liver and the brain. In RAP-deficient mice the megalin expression in the kidneys is reduced by about 80% (Bim, 2000) and also the cubilin expression is reduced by some extend. These mice are therefore a representative model to study the megalin dependence of the uptake of radiopharmaceuticals. There exist also megalin knock-out mice which have the disadvantage that only 2% of the bred animals survive to adulthood due to several malformations especially of the forebrain (Leheste, 1999).
RAP-deficient mice (stock #002987) and mice of the control strain C57BL/6J (Jax®Mice, stock #000664) were treated with a single intravenous injection (1-2 μCi/animal) of the following radiopharmaceuticals:
After 24 hours post injection the animals were killed and the organs as well as the collected urine and faeces counted for radioactivity. […]

In the next data set the target is megalin (Homo sapiens, UniProt P98164). Conditions: cited from earlier work.
Where [2] appears, read: B6.129S7-Lrpap1^tmlHer (RAP-deficient), RAP−/− (RAP-deficient) mice.

Sequence of megalin (P98164 26-4655, species assumed): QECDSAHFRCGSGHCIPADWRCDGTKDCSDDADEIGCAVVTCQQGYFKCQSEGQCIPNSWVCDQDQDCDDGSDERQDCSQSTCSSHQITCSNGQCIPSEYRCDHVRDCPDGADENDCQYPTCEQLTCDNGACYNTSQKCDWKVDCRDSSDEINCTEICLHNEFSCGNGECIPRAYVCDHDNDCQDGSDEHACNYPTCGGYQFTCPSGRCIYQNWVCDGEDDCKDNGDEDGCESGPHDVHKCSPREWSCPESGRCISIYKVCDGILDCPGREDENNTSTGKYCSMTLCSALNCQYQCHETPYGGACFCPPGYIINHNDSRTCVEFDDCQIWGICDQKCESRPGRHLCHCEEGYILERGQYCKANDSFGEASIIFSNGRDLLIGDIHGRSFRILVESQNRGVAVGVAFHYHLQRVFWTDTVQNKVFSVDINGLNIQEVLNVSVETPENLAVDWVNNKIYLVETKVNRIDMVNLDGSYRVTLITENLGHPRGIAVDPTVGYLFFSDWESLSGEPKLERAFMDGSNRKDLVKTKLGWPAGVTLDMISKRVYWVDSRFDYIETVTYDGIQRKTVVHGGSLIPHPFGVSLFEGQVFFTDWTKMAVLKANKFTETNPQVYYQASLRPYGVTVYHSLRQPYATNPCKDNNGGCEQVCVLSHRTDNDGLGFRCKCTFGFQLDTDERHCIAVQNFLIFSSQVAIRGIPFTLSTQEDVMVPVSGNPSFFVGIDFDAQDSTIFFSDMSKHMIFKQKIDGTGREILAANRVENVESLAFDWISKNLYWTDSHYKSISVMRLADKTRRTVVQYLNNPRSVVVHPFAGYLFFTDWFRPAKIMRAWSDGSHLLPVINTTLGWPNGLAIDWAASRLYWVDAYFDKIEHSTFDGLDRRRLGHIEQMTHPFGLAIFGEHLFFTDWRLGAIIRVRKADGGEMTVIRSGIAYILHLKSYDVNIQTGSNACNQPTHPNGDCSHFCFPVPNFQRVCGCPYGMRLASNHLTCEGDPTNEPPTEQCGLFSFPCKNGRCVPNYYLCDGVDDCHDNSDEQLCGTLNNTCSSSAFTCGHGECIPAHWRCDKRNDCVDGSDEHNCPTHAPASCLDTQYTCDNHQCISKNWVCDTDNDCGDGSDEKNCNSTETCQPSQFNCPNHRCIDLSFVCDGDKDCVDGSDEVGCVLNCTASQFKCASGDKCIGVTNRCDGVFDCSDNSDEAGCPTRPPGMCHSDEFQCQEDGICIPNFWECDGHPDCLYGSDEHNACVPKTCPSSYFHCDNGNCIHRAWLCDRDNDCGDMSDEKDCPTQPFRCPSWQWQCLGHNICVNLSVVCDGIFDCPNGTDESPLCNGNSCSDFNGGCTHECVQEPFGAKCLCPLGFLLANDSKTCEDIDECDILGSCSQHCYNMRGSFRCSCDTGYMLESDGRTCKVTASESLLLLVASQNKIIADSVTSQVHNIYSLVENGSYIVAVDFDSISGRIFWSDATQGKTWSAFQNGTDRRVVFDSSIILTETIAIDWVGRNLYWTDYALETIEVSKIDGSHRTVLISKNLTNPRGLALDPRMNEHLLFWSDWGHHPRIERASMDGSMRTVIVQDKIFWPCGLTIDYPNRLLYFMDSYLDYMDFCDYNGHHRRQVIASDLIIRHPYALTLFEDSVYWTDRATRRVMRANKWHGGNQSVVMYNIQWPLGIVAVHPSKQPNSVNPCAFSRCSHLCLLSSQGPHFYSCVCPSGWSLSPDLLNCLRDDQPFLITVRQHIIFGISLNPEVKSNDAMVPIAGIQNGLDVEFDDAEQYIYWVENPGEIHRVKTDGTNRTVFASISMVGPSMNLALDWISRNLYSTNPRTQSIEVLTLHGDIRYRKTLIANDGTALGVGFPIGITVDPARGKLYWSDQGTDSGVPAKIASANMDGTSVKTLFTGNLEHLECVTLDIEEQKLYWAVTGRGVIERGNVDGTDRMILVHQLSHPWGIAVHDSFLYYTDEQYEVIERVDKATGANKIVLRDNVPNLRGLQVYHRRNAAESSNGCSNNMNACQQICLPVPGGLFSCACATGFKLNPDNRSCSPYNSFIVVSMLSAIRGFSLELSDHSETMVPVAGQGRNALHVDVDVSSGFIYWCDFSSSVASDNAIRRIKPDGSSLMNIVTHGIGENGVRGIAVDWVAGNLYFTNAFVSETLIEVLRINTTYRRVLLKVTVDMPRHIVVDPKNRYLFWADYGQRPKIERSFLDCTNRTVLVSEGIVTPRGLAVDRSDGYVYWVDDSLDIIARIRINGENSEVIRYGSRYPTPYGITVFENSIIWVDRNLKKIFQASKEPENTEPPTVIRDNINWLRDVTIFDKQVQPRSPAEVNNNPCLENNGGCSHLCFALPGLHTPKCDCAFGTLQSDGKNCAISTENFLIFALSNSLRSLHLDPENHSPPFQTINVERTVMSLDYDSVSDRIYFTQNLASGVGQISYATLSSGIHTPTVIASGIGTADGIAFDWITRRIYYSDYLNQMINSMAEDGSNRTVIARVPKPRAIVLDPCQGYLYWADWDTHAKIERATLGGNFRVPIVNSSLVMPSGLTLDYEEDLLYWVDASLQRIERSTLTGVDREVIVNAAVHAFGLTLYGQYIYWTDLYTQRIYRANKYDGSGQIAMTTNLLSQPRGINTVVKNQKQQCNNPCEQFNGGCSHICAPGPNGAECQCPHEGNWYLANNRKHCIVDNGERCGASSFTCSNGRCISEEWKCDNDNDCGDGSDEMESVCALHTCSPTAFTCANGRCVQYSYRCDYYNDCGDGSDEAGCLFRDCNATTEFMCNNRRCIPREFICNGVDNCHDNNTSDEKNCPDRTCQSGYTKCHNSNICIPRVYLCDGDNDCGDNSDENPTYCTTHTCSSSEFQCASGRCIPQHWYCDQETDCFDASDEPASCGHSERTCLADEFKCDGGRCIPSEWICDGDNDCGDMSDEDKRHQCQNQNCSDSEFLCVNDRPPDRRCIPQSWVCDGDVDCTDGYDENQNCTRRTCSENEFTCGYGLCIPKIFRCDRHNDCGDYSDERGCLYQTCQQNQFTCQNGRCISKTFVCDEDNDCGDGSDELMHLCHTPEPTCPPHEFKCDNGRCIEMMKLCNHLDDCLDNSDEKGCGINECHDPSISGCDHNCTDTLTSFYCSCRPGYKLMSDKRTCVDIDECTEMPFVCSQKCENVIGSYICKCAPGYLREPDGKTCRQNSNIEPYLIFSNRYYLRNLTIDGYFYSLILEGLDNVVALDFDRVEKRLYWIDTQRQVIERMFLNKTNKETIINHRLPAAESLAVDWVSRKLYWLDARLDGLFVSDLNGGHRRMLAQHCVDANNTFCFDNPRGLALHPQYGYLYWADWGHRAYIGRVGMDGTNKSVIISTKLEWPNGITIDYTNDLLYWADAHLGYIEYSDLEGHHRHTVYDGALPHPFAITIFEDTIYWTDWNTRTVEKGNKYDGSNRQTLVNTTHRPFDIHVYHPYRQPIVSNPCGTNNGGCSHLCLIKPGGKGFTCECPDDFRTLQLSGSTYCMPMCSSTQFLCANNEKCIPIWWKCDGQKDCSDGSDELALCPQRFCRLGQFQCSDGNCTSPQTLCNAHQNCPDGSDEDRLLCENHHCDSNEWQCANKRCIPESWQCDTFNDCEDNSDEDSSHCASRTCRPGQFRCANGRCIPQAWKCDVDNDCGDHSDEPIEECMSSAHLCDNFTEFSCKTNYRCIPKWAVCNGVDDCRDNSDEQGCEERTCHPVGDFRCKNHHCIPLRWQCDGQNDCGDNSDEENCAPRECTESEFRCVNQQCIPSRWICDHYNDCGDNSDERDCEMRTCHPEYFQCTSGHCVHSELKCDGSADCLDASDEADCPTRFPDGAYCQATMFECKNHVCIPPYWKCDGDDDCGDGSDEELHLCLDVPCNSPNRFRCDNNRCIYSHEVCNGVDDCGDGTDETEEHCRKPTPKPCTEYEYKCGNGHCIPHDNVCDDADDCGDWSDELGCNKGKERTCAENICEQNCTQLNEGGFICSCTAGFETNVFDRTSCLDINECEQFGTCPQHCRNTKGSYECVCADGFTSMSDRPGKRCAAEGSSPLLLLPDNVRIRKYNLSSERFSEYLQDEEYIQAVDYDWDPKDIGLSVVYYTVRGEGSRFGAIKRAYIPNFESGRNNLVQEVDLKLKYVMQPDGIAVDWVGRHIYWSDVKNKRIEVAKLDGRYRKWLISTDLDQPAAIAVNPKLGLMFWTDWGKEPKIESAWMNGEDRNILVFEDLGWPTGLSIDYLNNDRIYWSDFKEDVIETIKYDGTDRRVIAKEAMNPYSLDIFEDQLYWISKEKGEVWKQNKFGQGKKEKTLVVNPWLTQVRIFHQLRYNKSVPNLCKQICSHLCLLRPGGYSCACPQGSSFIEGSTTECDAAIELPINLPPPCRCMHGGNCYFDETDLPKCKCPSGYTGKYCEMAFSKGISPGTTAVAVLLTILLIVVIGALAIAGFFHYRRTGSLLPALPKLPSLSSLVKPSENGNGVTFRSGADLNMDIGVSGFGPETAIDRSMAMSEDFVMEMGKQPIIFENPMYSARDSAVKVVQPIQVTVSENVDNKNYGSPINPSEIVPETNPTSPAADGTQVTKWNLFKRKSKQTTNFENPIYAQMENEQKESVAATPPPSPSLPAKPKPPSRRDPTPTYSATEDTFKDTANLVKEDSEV

Regarding `CC(C)[C@@H]1NC(=O)[C@H](CCCCN)NC(=O)[C@@H](Cc2c[nH]c3ccccc23)NC(=O)[C@H](Cc2ccc(O)cc2)NC(=O)[C@H](Cc2ccccc2)N(C)C(=O)[C@H](CCSCC(=O)NC[C@H](N)C(=O)N[C@@H](CCCCN)C(=O)N[C@@H](CS)C(=O)N[C@@H](CCCCN)C(N)=O)NC1=O` [Tc-99m-NeoTect ®, metal not drawn] (cyclo([hCys](X1)[NMeF]Y[dW]KV)), in data set [1] (setting [2]), the tissue uptake at 24 h is 99.3 %ID/g and the dose excreted at 24 h was 40.4%. In data set [1] (Control mice (C57BL/6J)), the tissue uptake at 24 h is 261 %ID/g and the dose excreted at 24 h was 23.6%.
For “RAP: 39 kDa chaperone-like protein that binds tightly to megalin”, the “Affinity of binding to megalin” value with megalin is on record as “high affinity in the nanomolar range”.
